pIC50: −log10 of the molar value. Where two headings read alike, the source gives them in different places.
Assays:
[1] = Body weight of mice in Ba/F3 KIF5B-RET xenograft experiment; type: in vivo, NPSG mice; details: Ba/F3 KIF5B-RET model, in g (unit assumed)
Experimental: (§1) 4) After inoculation, the volume and weight of tumors were measured once a week. When the average tumor volume reached 104 mm^3, mice were randomly grouped according to the volume and weight of tumors with 6 mice in each group. The administration was started immediately after the grouping. The start date of the administration was recorded as day 0.
(§2) 5) After administration was started, the body weight and tumor volume of the mice were measured respectively on the day 0, day 3, day 6, and day 10.

[2] = system: Ba/F3 KIF5B-RET-V804L tumor cell xenograft; assay: Efficacy in Ba/F3 KIF5B-RET-V804L tumor cell xenograft model; type: in vivo, NPSG mice
Description: 1) Ba/F3 KIF5B-RET-V804L cells were resuscitated and cultured in vitro to obtain 5×10^7 cells.
2) Forty-five 6-8 week old female mice were adaptively fed for 1 week and weighed.
3) Ba/F3 KIF5B-RET-V804L tumor cells were subcutaneously inoculated into the right scapula position of the mice so as to establish the engineered cell line Ba/F3 KIF5B3-RET-V804L tumor cell xenograft model. Inoculation conditions were as follows: (see Table 3)
(§3) 4) After inoculation, the volume and weight of tumors were measured once a week. When the average tumor volume reached 124.5 mm^3, mice with the tumor volume between 82.9 mm^3 and 145.4 mm^3 were selected and randomly grouped according to the volume and weight of tumors with 6 mice in each group. The administration was started immediately after the grouping. The start date of the administration was recorded as day 0.
(§4) 5) After the administration was started, the mice were continuously administrated for 9 days, and the body weight and tumor volume of the mice were measured on day 3, day 6, and day 9.
6) Data statistics were analyzed by one-way ANOVA. Variance homogeneity difference of data was firstly detected. If there was no difference in the variance homogeneity, an LSD method was used for analysis; and if there was a difference in the variance homogeneity, Dunnett's T3 was selected for data analysis. All data were analyzed by using SPSS 17.0. A p value less than 0.05 was considered a significant difference.

[3] = Body weight of mice in Ba/F3 KIF5B-RET-V804L xenograft experiment; type: in vivo, NPSG mice; details: 10 mg/kg p.o. BID, Ba/F3 KIF5B-RET-V804L model, in g (unit assumed)
Experimental: as §3, §4

[4] = system: Ba/F3 KIF5B-RET tumor cell xenograft; assay: Efficacy in engineered cell line Ba/F3 KIF5B-RET xenograft model; type: in vivo, NPSG mice; details: for TGI: TGI = 1-ΔT/ΔC; for Tumor Volume on Day 10 / Tumor Volume on Day 0: average ± standard error
Description: To verify efficacy of drugs to be tested alone on the engineered cell line Ba/F3 KIF5B-RET xenograft model of NPSG mice.
1) Ba/F3 KIF5B-RET cells were resuscitated and cultured in vitro to obtain 4×10^7 cells.
2) Sixty 6-8 week old female NPSG mice were adaptively fed for one week and weighed.
3) The Ba/F3 KIF5B-RET cells were subcutaneously inoculated on right scapula of mice according to the inoculation conditions obtained in the pre-test (see Table 7) to establish the Ba/F3 KIF5B-RET tumor cell xenograft model of NPSG mice.
as §1, §2
6) For the experiment of two groups, a T-Test analysis method was used. For a comparison of three or more groups, One-Way ANOVA was used for analysis. For comparing potential synergistic effects, Two-Way ANOVA was used for analysis. All data were analyzed by using SPSS 17.0. A p value less than 0.05 was considered to be a significant difference, and a p value less than 0.01 was considered to be a very significant difference.

[5] = Pharmacokinetic evaluation in mice; type: in vivo, CD-1 mice (male); details: male, mouse, plasma, CD-1 mice; for bioavailability: read-out: Bioavailability F; for AUC: read-out: Integrated Concentration AUC; for clearance: read-out: Clearance Rate; for half-life: read-out: Half-life T1/2 (converted)
Description: Experiment objective: to test the pharmacokinetic of compound in mice
Experiment material: CD-1 mice (male)
Experiment operations: the pharmacokinetic characteristics of rodents after intravenous injection and oral administration of the compounds were obtained by using a standard scheme. In the experiment, candidate compounds were formulated into clear solutions, and mice were administrated by a single intravenous injection and oral administration. The solvent of the intravenous injection and oral administration was 10% PEG400 (polyethylene glycol 400)+90%(10% hydroxypropyl-β-cyclodextrin). The whole blood samples were collected within 24 hours. All the blood samples were added respectively into labeled plastic centrifuge tubes in which 0.5 M K2-EDTA anticoagulants were pre-added. The blood samples were collected, and centrifuged at 3,000 g for 10 min at 4° C. The supernatant plasma was collected by absorbing and quickly placed in dry ice to keep at −20° C. or lower. Blood concentrations were quantitatively analyzed by using an LC-MS/MS analysis method, and pharmacokinetic parameters, such as peak concentration, peak time, clearance rate, half-life, area under drug concentration-time curve, bioavailability, etc. were calculated.

human wild-type RET = biological target: T1, human wild-type RET (Homo sapiens, UniProt P07949); assay: 33P isotope-labeled kinase activity test, wild-type RET; type: biochemical; details: 33P-ATP at Km concentration
T1 construct: purchased Reaction Biology Corp
Experimental: (§5) ^33P isotope-labeled kinase activity test (Reaction Biology Corp) was used to determine IC50 value so as to evaluate an inhibitory ability of a test compound on human wild-type, V804M and V804L mutant RET.
(§6) Buffer solution condition: 20 mM 4-(2-hydroxyethyl)piperazine-1-ethanesulfonic acid (Hepes) (pH 7.5), 10 mM MgCl2, 1 mM 1,2-bis[2-[bis(carboxymethyl)amino]ethoxy]ethane (EGTA), 0.02% polyoxyethylene lauryl ether (Brij35), 0.02 mg/mL bovine serum albumin (BSA), 0.1 mM of Na3VO4, 2 mM dithiothreitol (DTT) and 1% DMSO.
(§7) Compound treatment: the compound to be tested was dissolved in 100% DMSO, and then the obtained solution was continuously diluted with DMSO by using Integra Viaflo Assist until a specific concentration was obtained.
(§8) Test procedures: a substrate was dissolved in the newly prepared buffer solution, a kinase to be tested was added therein, and the obtained solution was gently and evenly mixed. DMSO solution in which a compound to be test was dissolved was added in the above evenly mixed reaction solution by using an acoustic technology (Echo 550), and then incubated for 20 minutes at room temperature. […] Kinase activity data was expressed by comparing the kinase activity of the compound to be tested with the kinase activity of a blank group (containing only DMSO). The IC50 value was obtained by curve fitting with Prism4 software (GraphPad).

V804L mutant RET = biological target: T2, V804L mutant RET (Homo sapiens, UniProt P07949, V804L); assay: 33P isotope-labeled kinase activity test, V804L mutant RET; type: biochemical; details: 33P-ATP at Km concentration
T2 construct: purchased Reaction Biology Corp
Experimental: as §5, §6, §7, §8

V804M mutant RET = biological target: T3, V804M mutant RET (Homo sapiens, UniProt P07949, V804M); assay: 33P isotope-labeled kinase activity test, V804M mutant RET; type: biochemical; details: 33P-ATP at Km concentration
T3 construct: purchased Reaction Biology Corp
Experimental: as §5, §6, §7, §8

[6] = 10 mg/kg, oral administration 10 mpk
[7] = iv, 2 mg/kg, injection administration 2 mpk

T1 sequence (P07949 29-1114): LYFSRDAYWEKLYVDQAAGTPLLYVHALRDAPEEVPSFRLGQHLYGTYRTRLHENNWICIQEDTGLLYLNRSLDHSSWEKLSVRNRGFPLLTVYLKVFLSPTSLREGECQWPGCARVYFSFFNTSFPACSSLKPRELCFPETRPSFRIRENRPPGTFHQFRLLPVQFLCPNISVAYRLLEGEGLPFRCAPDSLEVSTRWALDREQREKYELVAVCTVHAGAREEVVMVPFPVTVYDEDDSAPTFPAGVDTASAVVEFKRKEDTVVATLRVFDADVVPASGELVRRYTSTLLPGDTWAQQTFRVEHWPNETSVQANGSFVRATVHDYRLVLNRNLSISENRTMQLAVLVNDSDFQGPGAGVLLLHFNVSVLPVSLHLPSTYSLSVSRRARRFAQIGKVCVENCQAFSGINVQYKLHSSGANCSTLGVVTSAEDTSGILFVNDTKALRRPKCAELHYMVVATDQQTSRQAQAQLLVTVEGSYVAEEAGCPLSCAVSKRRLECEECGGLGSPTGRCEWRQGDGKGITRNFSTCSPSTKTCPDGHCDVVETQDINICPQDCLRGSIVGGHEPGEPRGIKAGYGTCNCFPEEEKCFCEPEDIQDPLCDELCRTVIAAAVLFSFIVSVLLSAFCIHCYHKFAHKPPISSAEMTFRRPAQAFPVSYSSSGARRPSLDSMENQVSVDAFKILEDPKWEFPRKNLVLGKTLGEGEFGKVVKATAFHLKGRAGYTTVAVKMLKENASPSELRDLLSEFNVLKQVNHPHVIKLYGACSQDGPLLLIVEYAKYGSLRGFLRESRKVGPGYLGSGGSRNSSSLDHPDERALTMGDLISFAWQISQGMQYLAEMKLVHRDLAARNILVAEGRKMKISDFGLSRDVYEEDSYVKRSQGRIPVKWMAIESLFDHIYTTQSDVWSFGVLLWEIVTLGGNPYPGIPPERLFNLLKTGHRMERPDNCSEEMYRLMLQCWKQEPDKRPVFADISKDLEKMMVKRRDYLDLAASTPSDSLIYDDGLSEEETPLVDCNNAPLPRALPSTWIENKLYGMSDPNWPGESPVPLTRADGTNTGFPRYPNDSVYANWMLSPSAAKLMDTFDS
T2 sequence (P07949 29-1114 V804L): as the sequence (P07949 29-1114) above, with V776L counted along it
T3 sequence (P07949 29-1114 V804M): as the sequence (P07949 29-1114) above, with V776M counted along it

| bioavailability [5, 6] [%] | AUC [5, 6] [µM·h] | clearance [5, 7] [L/h/kg] | half-life [5, 7] [h] | AUC [5, 7] [µM·h] | pIC50 (human wild-type RET) | SMILES | Body weight ([1]; day 0, 10 mg/kg p.o. BID) | Body weight ([1]; day 3, 10 mg/kg p.o. BID) | Body weight ([1]; day 6, 10 mg/kg p.o. BID) | Body weight ([1]; day 10, 10 mg/kg p.o. BID) | ΔVAC ([2]; 10 mg/kg p.o. BID Day 0-Day 9) [%] | Body weight ([3]; day 0) | Body weight ([3]; day 3) | Body weight ([3]; day 6) | Body weight ([3]; day 9) | ΔVAC ([4]; 10 mg/kg p.o. BID Day 0-Day 10) [%] | also measured |
| --- | --- | --- | --- | --- | --- | --- | --- | --- | --- | --- | --- | --- | --- | --- | --- | --- | --- |
| 53.7 | 49.6 | 0.099 | 2.53 | 16.4 |  | Cc1cc(Nc2cc(C)nc(C3CCC4(CC3)OCCN(C(C)c3ccc(-n5cc(F)cn5)nc3)C4=O)n2)[nH]n1 (single isomer, unassigned) [Compound 014] | 18 ± 0.57 | 18.5 ± 0.47 | 18.5 ± 0.75 | 18.6 ± 0.62 | −6 | 19.5 ± 0.53 | 20.3 ± 0.72 | 20.5 ± 0.72 | 20.3 ± 0.84 | 1 |  |
|  |  |  |  |  | 7.13 | Cc1cc(Nc2cc(C)nc(N3CCC4(CC3)CCN(C(C)c3ccc(-n5cc(F)cn5)nc3)C4)n2)[nH]n1 (stereo not drawn) [Compound 003-h] |  |  |  |  |  |  |  |  |  |  |  |
| 59.7 | 27.7 | 0.393 | 2.56 | 9.3 | 8.89 | Cc1cc(Nc2cc(C)[nH]n2)nc(N2CCC3(CC2)OCCN(C(C)c2ccc(-n4cc(F)cn4)nc2)C3=O)n1 (stereo not drawn) [Compound 018] | 17.7 ± 0.47 | 18.2 ± 0.51 | 18.5 ± 0.57 | 17.7 ± 0.86 | −7 | 18.6 ± 0.49 | 18.8 ± 0.48 | 18.6 ± 0.87 | 19 ± 0.64 | 10 | Body weight ([1]; day 0, 20 mg/kg p.o. BID): 17.6 ± 0.58; Body weight ([1]; day 3, 20 mg/kg p.o. BID): 18.1 ± 0.56; Body weight ([1]; day 6, 20 mg/kg p.o. BID): 18.3 ± 0.53; Body weight ([1]; day 10, 20 mg/kg p.o. BID): 18.5 ± 0.63; pIC50 (V804L mutant RET): 8.91; TGI ([2]; 10 mg/kg p.o. BID Day 0-Day 9, TGI = 1-ΔT/ΔC): 107%; Tumor Volume on Day 9 ([2]; 10 mg/kg p.o. BID Day 0-Day 9, average ± standard error): 75.5 ± 7.11 mm^3; Tumor Volume on Day 0 ([2]; 10 mg/kg p.o. BID, average ± standard error): 125 ± 3.96 mm^3; TGI ([4]; 10 mg/kg p.o. BID Day 0-Day 10): 90%; Tumor Volume on Day 10 ([4]; 10 mg/kg p.o. BID Day 0-Day 10): 205.1 ± 29.87 mm^3; Tumor Volume on Day 0 ([4]; 10 mg/kg p.o. BID): 106.3 ± 7.14 mm^3; ΔVAC ([4]; 20 mg/kg p.o. BID Day 0-Day 10): −7%; TGI ([4]; 20 mg/kg p.o. BID Day 0-Day 10): 107%; Tumor Volume on Day 10 ([4]; 20 mg/kg p.o. BID Day 0-Day 10): 32.8 ± 6.81 mm^3; Tumor Volume on Day 0 ([4]; 20 mg/kg p.o. BID): 102.2 ± 7.09 mm^3; pIC50 (V804M mutant RET): 8.71 |
